Patent publication US20220119446A1, “BIOMARKERS AND TREATMENT OF NEURONAL INJURY AND NEURODEGENERATION” (Board of Supervisons of Louisiana State University and …, priority 2018, published 2022)
“Also recorded” adds a separate entry of the source. * marks the point of attachment. Boc = CC(C)(C)OC(=O)*

What was measured:
Assay type in all cases: cell-based, human
FZD5 = experiment: Western blot of FZD5 protein in hpRPE cells under UOS
Description: The pellet was re-suspended and denatured in 100 μl of 2× Laemmli sample buffer (Bio-Rad Laboratories) at 95° C. for 5 min. MCAo brain tissue and cell samples were homogenized using RIPA (Thermo Fisher Scientific) buffer supplemented with protease and phosphatase inhibitor cocktails (Sigma). The amount of 30 μg of total protein was loaded in NuPAGE® Novex® 4-12% Bis-Tris precast gels (Life Technologies Corporation) or Mini-PROTEAN TGX Stain free gels 4-15% and ran at constant 120V for 1 hour and 20 min or 250 V for 40 min respectively. Proteins were transferred to μm Nitrocellulose or LF-PVDF membrane using Bio-Rad Trans-Blot® Turbo™ System (Bio-Rad Laboratories). ECL™ Plex Fluorescent Rainbow Markers (GE Healthcare) were used as the ladder for protein's molecular weight. Membranes were blocked using 5% non-fat dry milk (Bio-Rad Laboratories) in TBS with 1% Tween® 20 (TBST-10X) for 1 hour and incubated overnight with primary antibodies. Anti-mouse or anti-rabbit secondary antibodies conjugated with Cy3 or Cy5 were used to visualize the protein of interest. Immunoblots were documented using LAS 4000 imaging system (GE Healthcare Life Sciences) or ChemiDoc MP Imaging System (BioRad Laboratories). A time course exposition was produced in each case to prevent quantification of saturated images. Densitometry data was obtained using ImageQuant™ TL software and XRS Blot Chemi Software (BioRad Laboratories).

NF-κB/p65 = NF-κB/p65 luciferase reporter assay in hpRPE cells
Description: We asked if Wnt5a activates inflammatory signaling to enhance apoptosis mediated by UOS by assessing COX-2 promoter activation (FIG. 10). […] To compare Wnt5a effects with other cytokines that enhance COX-2 expression, Interleukin-1β (IL-1β) activity was measured. […] To determine if Wnt5a activates NF-κB, hpRPE were transfected with a construct that encompassed three p65 high-affinity binding sites in tandem, driving the expression of the luciferase reporter gene (FIG. 1G). […] To assess whether or not FDZ5 and ROR2 were involved in NF-κB activation by Wnt5a, cells were co-transfected with siRNAs targeting the two receptors (FIG. 11).
(§1) Except TOP/FOP flash, the Luciferase activity can be standardized using a construct expressing GFP constitutively under CMV virus promoter. To assess luciferase activity, cell lysates can be obtained using Passive Lysis Buffer (Promega, Madison, Wis.) and mixed with a luciferase assay reagent (Promegam Madison, Wis.). Chemiluminescence produced by luciferase and fluorescence from GFP can be detected using Appliscan 2.3. Data can be analyzed using SkanIt 2.3 (Thermo Fisher Scientific, Waltham, Mass.).
(§2) Except TOP/FOP flash, the Luciferase activity was standardized using a construct expressing GFP constitutively under CMV virus promoter. To assess luciferase activity, cell lysates were obtained using Passive Lysis Buffer (Promega) and mixed with a luciferase assay reagent (Promega). Chemiluminescence produced by luciferase and fluorescence from GFP was detected using Appliscan 2.3. Data were analyzed using SkanIt 2.3 (Thermo Fisher Scientific).

β-catenin = experiment: TOP Flash/FOP flash luciferase reporter in hpRPE cells; conditions: hpRPE cells undergoing UOS+/−NPD1
Source text: We tested whether or not Wnt5a activates […] using TOP Flash/FOP flash reporter system in hpRPE cells undergoing UOS+/−NPD1 (FIG. 1g).
as §1, §2

COX-2 promoter = COX-2 promoter luciferase reporter assay; conditions: for COX-2 promoter activity (luciferase): hRPE cells, +/− 100 nM and 200 nM NPD1
Source text: as §1
A, Design of luciferase reporter assay performed with COX-2 promoter construct. UOS was induced by the addition of 10 ng/ml TNFα and 600 μM H2O2 in ARPE-19 cells. The concentrations of Wnt5a used was 50 ng/ml. Cells were co-transfected with the constructs driving the expression of luciferase and a plasmid that constitutively expressed green fluorescent protein for standardization. Luciferase activity is denoted in luciferase activity units (LUC) and standardized using GFP fluorescent (GFP). B, Wnt5a and IL-1β effect time course on COX-2 promoter activity. […] Luciferase activity (LUC) was measured in ARPE-19 cells in the presence of 50 ng/ml Wnt5a or 20 ng/ml IL1-β. […] Luciferase activity measured in cells incubated with 50 ng/ml Wnt5a in the presence or absence of 100 nM (+) and 200 nM (++) NPD1.

[1] = hpRPE under UOS in the presence of Wnt5a 50 ng/ml, NPD1 100 or 200 nM, Pitstop2 25 μM

t-Boc-NH-Met-Asp-Gly-Cys-Glu-Leu-CO2H (Boc-MDGCEL-OH) [Box5]
FZD5 protein abundance (FZD5; Box5, even in the presence of Wnt5a 50 ng/ml): decreased FZD5 abundance by half of the level

CC/C=C\C[C@H](O)\C=C/C=C/C=C/[C@H](O)C/C=C\C/C=C\CCC(=O)O [NPD1, 10R,17S-dihydroxy-docosa-4Z,7Z,11E,13E,15Z,19Z-hexaenoic acid]
NF-κB/p65 activation (luciferase) (NF-κB/p65; [1]): reduced luciferase activity; also recorded: affects its activation when Wnt5a is added
NF-κB activation in cells co-transfected with ROR2 and FZD5 siRNAs (NF-κB/p65; hpRPE under UOS, double knockdown): not affected
NF-κB/p65 activation (luciferase) (NF-κB/p65; hpRPE under UOS, no Wnt5a added): did not affect NF-κB/p65; also recorded: does not prevent activation of NF-κB triggered by UOS; also recorded: did not affect NFkB/p65
FZD5 protein abundance (FZD5; 100 nM NPD1, Wnt5a present): steep decrease in the receptor content
FZD5 protein abundance (FZD5; 100 nM NPD1, absence of Wnt5a): no differences in the FZD5 receptor were observed
β-catenin activity (luciferase) (β-catenin): not significantly altered
COX-2 promoter activity (luciferase) (COX-2 promoter; 50 ng/ml Wnt5a): down by half; also recorded: prevents Wnt5a-induced activation of COX-2 promoter

B1: Wnt5a: Recombinant Human/Mouse Wnt-5a Protein, CHO-derived (Gln38-Lys380), R&D systems 645-WN (protein)
chain: QVVIEANSWWSLGMNNPVQMSEVYIIGAQPLCSQLAGLSQGQKKLCHLYQDHMQYIGEGAKTGIKECQYQFRHRRWNCSTVDNTSVFGRVMQIGSRETAFTYAVSAAGVVNAMSRACREGELSTCGCSRAARPKDLPRDWLWGGCGDNIDYGYRFAKEFVDARERERIHAKGSYESARILMNLHNNEAGRRTVYNLADVACKCHGVSGSCSLKTCWLQLADFRKVGDALKEKYDSAAAMRLNSRGKLVQVNSRFNSPTTQDLVYIDPSPDYCVRNESTGSLGTQGRLCNKTSEGMDGCELMCCGRGYDQFKTVQTERCHCKFHWCCYVKCKKCTEIVDQFVCK
NF-κB/p65 activation (luciferase) (NF-κB/p65; [1]): heightens NF-κB activation; also recorded: heightened NFkB activation
β-catenin activity (luciferase) (β-catenin): did not affect β-catenin; also recorded: does not affect activation of β-catenin
time of peak COX-2 promoter activity after addition (COX-2 promoter; ARPE-19 cells, 50 ng/ml Wnt5a): 4 h
COX-2 promoter activation (luciferase) (COX-2 promoter; ARPE-19 cells, 50 ng/ml Wnt5a or 20 ng/ml IL1-β): induced COX-2 promoter activation
COX-2 promoter activity (luciferase) (COX-2 promoter; 50 ng/ml Wnt5a): increased COX-2 activation
